Source: US8022056B2, “Compositions and methods for the treatment of cancer” (Tautatis, Inc, priority 2006, dated 2011)

How the values were obtained:
T-47D xenograft = assay: Mouse xenograft model T-47D; assay type: in vivo; settings: Breast, p53/PI3K; oral twice daily dosing
Method: (§1) The efficacy of the compound of the formula 1 was confirmed in mouse tumor xenograft models, employing the NMRI(nu/nu) strain of mice. For example, cells from the human tumor cell lines MDA-MB-231, U373, and HT29 were pre-incubated subcutaneously in several nude mice to select for the most robustly growing cell population. After having grown to a sufficient size after 2-3 weeks, a piece of about 2 mm^3 volume of the most suitable tumor was transplanted subcutaneously into the region of the thoracic mammary fat pads, an area ensuring a high degree of vascularization of the grafted tissue. […] During the course of the treatment, the weight of the animals and the size of the transplanted tumor was monitored three times a week. […] These doses are best determined separately for each individual mouse strain employed.
(§2) To establish a solid tumour 3×10^6 tumor cells suspended in 100 μl of serum free medium (RPMI) were inoculated subcutaneously into the region of the thoracic mammary fat pads of 5 Male NMRI(nu/nu) mice of 8-10 weeks of age. […] During the course of the treatment body weight changes and tumor growth were recorded three times a week. Growth curves were plotted together with standard deviations and the significance of differences was determined using an unpaired t-test in FIG. 11. […]

ERK2 = ERK2 (Homo sapiens, UniProt P28482); assay: Kinase inhibition under standard conditions, ERK2; assay type: biochemical
ERK2, sequence (P28482 whole entry, species assumed): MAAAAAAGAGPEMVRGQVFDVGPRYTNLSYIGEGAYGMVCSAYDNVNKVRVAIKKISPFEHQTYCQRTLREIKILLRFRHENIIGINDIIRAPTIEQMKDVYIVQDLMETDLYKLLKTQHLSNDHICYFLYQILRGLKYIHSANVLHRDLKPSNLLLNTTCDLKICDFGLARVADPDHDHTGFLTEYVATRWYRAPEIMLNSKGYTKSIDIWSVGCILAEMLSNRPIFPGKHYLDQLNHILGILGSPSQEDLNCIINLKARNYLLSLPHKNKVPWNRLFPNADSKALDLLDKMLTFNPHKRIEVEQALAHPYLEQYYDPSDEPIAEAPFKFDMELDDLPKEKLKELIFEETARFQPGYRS

SK-MEL-5 xenograft = assay: Mouse xenograft model SK-MEL-5; assay type: in vivo; settings: Melanoma, Raf/CDKN2A; oral twice daily dosing
Method: as §1, §2

NCI-H23 xenograft = assay: Mouse xenograft model NCI-H23; assay type: in vivo; settings: Lung, Ras/p53; oral twice daily dosing
Method: as §1, §2

[1] = Pharmacokinetics in mouse plasma and brain after oral dosing; assay type: in vivo
Method: Standard curves were established for the compound 1 reextracted from serum samples and brain homogenates, using the related compound 2 as internal standard. 200 μl serum samples prepared from mouse or human blood, and homogenates of 0.2 g mouse brain tissue in 0.3 ml saturated NaCl solution, were spiked with a range of concentrations of compound 1 at 10 nM, 30 nM, 100 nM, 300 nM, 1 μM, 3 μM in a mix with 500 nM of compound 2 as internal standard in DMSO (final DMSO not exceeding 2%). Serum and homogenate samples were mixed with 100 μl conc. Ammonia, and 200 μl sat'd NaCl solution was added to the serum samples. […] were reextracted twice with 2 ml ethylacetate each by vigorous vortexing for 1 min. Combined organic extracts were evaporated in a SpeedVac, and residues were taken up in 300 μl of 40% water/60% methanol (0.1% formic acid). Samples were analyzed by reversed phase HPLC on a […] Zorbox 300SB-C8 2.1×150 mm column at 45° C. […]
Mice were dosed at 12.5 mg/kg in a vehicle of 50 mM (−)-lactic acid in 50% PEG400, and sacrificed by cardiac puncture after various time intervals. […] Reextraction was performed, and ratios of analyte 1 and internal standard 2 were determined as described above. The concentrations of compound 1 in the serum and brain samples was calculated from the standard curve.

PKA = assay: Kinase inhibition under standard conditions, PKA; assay type: biochemical
[2] = biological target: T1, ABC-B1 (glycoprotein gp170) (Homo sapiens, UniProt P08183); assay: Competition with MDR-driven efflux of calcein-AM in Kb-V1 cells (FACS); assay type: cell-based
T1 construct: Kb-V1 cells expressing high levels of gp170; endogenous in cells; host or cells: Kb-V1 cells
T1 sequence (P08183 whole entry): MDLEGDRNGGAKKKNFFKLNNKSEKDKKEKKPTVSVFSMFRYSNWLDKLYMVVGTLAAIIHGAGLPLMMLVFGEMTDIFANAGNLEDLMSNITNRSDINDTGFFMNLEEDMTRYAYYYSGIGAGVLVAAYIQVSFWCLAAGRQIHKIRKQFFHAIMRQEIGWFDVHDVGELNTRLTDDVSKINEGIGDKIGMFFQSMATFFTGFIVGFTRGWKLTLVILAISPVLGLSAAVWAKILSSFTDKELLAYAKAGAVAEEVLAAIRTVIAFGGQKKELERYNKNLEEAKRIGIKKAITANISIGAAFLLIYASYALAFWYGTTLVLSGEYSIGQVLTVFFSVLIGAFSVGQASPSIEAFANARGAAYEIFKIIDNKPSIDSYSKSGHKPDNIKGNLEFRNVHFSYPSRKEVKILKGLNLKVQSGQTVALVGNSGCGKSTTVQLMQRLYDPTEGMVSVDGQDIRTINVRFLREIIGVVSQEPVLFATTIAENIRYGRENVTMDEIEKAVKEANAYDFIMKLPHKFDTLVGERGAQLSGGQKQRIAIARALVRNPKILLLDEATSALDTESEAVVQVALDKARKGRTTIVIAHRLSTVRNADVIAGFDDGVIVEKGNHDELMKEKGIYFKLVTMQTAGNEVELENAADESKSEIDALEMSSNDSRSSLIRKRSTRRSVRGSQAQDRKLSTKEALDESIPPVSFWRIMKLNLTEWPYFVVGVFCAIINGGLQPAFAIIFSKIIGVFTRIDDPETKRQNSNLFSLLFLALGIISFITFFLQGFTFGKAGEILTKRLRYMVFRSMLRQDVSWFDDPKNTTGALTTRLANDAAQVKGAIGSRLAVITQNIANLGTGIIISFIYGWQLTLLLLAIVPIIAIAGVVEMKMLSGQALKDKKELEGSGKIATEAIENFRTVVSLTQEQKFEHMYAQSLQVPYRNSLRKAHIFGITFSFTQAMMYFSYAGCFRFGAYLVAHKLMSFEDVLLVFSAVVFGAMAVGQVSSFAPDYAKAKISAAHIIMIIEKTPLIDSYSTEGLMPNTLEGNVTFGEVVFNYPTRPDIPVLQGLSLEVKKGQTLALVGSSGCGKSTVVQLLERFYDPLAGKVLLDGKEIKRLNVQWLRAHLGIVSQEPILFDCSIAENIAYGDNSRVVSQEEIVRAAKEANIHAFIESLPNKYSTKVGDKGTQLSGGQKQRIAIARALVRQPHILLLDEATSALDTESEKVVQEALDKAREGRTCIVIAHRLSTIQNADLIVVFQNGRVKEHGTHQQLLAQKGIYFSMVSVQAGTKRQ
Source text: FIG. 6 compares the recognition of compound 1 and of the compound 6 by two frequently involved multi-drug resistance proteins ABC-B1 (glycoprotein gp170) (A), and ABC-G2 (breast cancer resistance protein BCRP) (B). Measurements were based on competition with the MDR-driven efflux of calcein-AM in Kb-V1 cells expressing high levels of gp170, or competition with the efflux of mitoxandrone in MCF-7 cells by the respective compounds within their effective concentration range. Uptake of fluorescent reporter compounds by competition with 1 or 6 was assessed by FACS as described in Mueller et al., Cancer Chemother. Pharmacol. 59, 157-164 (2007).

PC-3 xenograft = assay: Mouse xenograft model PC-3; assay type: in vivo; settings: Prostate, p53/PTEN; oral twice daily dosing
Method: as §1, §2

GSK3 = assay: Kinase inhibition under standard conditions, GSK3; assay type: biochemical

## CNC(=O)[C@@]1(N)C[C@H]2O[C@]1(C)n1c3ccccc3c3c4c(c5c6ccccc6n2c5c31)C(=O)NC4 [Compound 1]
T-47D xenograft
  Mean % Inhibition: 81%
  N tumors with no/neg. growth: 4 of 10
ERK2
  IC50: 64 nM
SK-MEL-5 xenograft
  Mean % Inhibition: 122%
  N tumors with no/neg. growth: 7 of 10
NCI-H23 xenograft
  Mean % Inhibition: 92%
  N tumors with no/neg. growth: 5 of 10
[1]; in vivo, practical forms of oral dosing
  maximal free plasma concentration sustained over prolonged periods: about 200 nM
[1]; mouse plasma and brain, oral dosing
  penetration of the CNS: good penetration of the CNS
PKA
  IC50: 300 nM
[2]
  separation of anti-proliferative potency range from uptake concentration for efflux transporter, versus compound 6: more clearly separated
PC-3 xenograft
  Mean % Inhibition: 68%
  N tumors with no/neg. growth: 2 of 11
GSK3
  IC50: 1230 nM
